These are literature values, as cited in US20090318527A1, “INDOLE COMPOUNDS AND METHODS OF USE THEREOF” (priority 2008, published 2009).

Each structure is given as a SMILES string.

The target of this series is T1, 5-HT2C (Homo sapiens, UniProt P28335).
T1 sequence (P28335 33-458): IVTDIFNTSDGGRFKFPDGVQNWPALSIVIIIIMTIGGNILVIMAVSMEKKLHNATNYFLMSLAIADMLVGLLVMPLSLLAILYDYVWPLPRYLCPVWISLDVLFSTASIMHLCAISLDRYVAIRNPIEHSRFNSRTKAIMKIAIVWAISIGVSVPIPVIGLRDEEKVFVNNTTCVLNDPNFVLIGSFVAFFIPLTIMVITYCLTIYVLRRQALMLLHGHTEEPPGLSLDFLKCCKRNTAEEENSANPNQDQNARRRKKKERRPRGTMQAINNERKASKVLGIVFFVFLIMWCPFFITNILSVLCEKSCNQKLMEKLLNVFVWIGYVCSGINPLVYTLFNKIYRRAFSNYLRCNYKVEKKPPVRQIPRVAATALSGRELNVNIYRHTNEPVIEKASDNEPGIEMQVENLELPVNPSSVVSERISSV
The note with it: cited from earlier work.

Take `C[C@H](N)Cn1ccc2cc(F)c(Cl)cc21` [Ro 60-0175]: under “5-HT2C versus 5-HT2A”, the “times more active at 5-HT2C as compared to 5-HT2A” value is on record as 25 times. Besides, the “selectivity over 5-HT2B receptors” value (5-HT2C versus 5-HT2B) is “not selective”.
